Reference: patent US11767313B2, “Compounds as nuclear transport modulators and uses thereof” (XWPHARMA LTD., priority 2018, dated 2023)
Like-named read-outs stand apart in the source and are kept apart here.

What was measured:
[1] = 25 mg/kg p.o., qod x 3 per week, two weeks; BALB/c Nude mice
T98G = test: CellTiter-Glo cell proliferation assay, T98G; assay type: cell-based; conditions: Homo sapiens, T98G; Table 11; read-out: Absolute IC50 (μM) T98G
Method: (§1) CellTiter-Glo® Luminescent Cell Viability assay (with Promega CellTiter 96® Luminescent CellTiter-Glo® kit) was used to study the proliferation inhibition by test compounds. Compounds were resuspended in DMSO to make a 25 mM stock suspension. Cells of cancer cell lines or normal tissues were seeded in 96-well plates at 1,500 to 5,000 cells/well overnight. Compounds were 2- or 3-fold diluted serially to obtain 10 concentrations. Then, the drugs were added to the cell wells by Bravo (Agilent) and incubated for 72 hours. The cells were lysed by adding CellTiter-Glo® Reagent (per manufacturer's instructions) and subsequently, the luminescence was read using EnVision® (PerkinElmer).
(§2) The percent of growth was calculated as follows. DMSO-treated cells were employed as vehicle control (High control, HC) and culture medium alone was employed as background (Low control, EC). % growth=100×(Lum sample−Lum EC)/(Lum HC−Lum EC). The ICso was calculated by concentration-response curve fitting using Graphpad Prism.
(§3) Hematological cancer cell lines tested included OCI-AML3, MV-4-11, KG-1, Kasumi-1, K562, THP-1; solid cancer cell lines tested included U87MG, U251, T98G, LN229, A172, H460, H2009, A549; normal cell lines tested included HCN2 and 3T3-L1. […] However, they were not toxic to in vitro cultured normal cells.

3T3-L1 = test: CellTiter-Glo cell proliferation assay, 3T3-L1 (normal); assay type: cell-based; conditions: Mus musculus, 3T3-L1; Table 6; read-out: 3T3-L1 IC50
Method: as §1, §2, §3

3T3 = test: Cytotoxicity, cell proliferation assay, 3T3; assay type: cell-based; conditions: Mus musculus, NIH3T3; Table 9
Method: as §1, §2
The cytotoxicity of test compounds was also determined in glioblastoma (U87MG)), brain (HCN2) and 3T3 cell lines was determined using the cell proliferation assay as described in Example 19.

HCT116 = test: Cytotoxicity, cell proliferation assay, HCT116 colon cancer; assay type: cell-based; conditions: Table 8
Method: as §1, §2
(§4) The cytotoxicity of test compounds in brain (HCN2), colon cancer (HCT116) and normal colon cell (C8-B4) lines was determined using the cell proliferation assay as described in Example 19.

Ki67 = test: PD effects by IHC in U87MG-luc orthotopic model, Ki67; assay type: in vivo, mice; conditions: orally three times a week for 2 weeks; vs vehicle control
Method: (§5) Based on the bioluminescent signal of tumor, mice were randomly assigned to respective groups using a computer-generated randomization procedure, which included vehicle and compound III-treated groups, respectively, with 5 animals per group. Compound III (20 mg/kg) was given orally 3 times a week (on Day 1, 3, 5) for 2 weeks. Animals for IHC study were euthanized at 6 hours after the last dose and perfused with normal saline followed by fixation with 4% paraformaldehyde. Entire brains containing tumors were collected and kept in fixative for 24 hours before proceeding for paraffin block.

CRM1 = target: T1, CRM1 (Homo sapiens, UniProt O14980); test: PD effects by IHC in U87MG-luc orthotopic model, CRM1; assay type: in vivo, mice; conditions: orally three times a week for 2 weeks; vs vehicle control
T1 construct: from tissue; host or cells: U87MG-luc orthotopic xenograft tumours in mouse brain
T1 sequence (O14980 whole entry): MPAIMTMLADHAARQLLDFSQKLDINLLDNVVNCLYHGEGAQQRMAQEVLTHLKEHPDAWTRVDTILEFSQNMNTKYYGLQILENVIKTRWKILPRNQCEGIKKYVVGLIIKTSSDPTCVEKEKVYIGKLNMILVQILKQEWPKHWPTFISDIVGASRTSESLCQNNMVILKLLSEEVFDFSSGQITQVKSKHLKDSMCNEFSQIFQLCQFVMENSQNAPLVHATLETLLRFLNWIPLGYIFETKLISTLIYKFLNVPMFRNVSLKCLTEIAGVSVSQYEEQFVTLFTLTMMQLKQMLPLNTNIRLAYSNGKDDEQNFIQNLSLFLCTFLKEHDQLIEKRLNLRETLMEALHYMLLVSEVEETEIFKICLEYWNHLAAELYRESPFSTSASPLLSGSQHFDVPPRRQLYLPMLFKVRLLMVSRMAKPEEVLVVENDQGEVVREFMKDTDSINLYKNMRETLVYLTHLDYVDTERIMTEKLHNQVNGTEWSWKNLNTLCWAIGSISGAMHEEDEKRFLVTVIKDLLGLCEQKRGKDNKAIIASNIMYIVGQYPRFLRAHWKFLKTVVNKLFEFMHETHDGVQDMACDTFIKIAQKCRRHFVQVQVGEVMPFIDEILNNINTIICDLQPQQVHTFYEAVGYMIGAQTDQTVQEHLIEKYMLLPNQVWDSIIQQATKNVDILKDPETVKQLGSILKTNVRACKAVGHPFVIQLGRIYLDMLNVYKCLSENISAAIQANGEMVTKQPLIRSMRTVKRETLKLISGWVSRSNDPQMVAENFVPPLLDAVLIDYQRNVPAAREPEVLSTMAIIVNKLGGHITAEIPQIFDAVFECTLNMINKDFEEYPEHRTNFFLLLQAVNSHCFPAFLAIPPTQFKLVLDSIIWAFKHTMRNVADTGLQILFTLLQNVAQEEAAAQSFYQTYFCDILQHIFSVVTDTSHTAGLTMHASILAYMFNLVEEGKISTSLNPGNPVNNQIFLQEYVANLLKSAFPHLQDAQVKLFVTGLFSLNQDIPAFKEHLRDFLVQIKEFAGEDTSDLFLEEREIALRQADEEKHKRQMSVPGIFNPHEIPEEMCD
Method: as §5

in vivo = conditions: female, BALB/c Nude, mouse
U251 = test: CellTiter-Glo cell proliferation assay, U251; assay type: cell-based; conditions: Homo sapiens, U-251; Table 11; read-out: Absolute IC50 (μM) U251
Method: as §1, §2, §3

C8-B4 = test: Cytotoxicity, cell proliferation assay, C8-B4; assay type: cell-based; conditions: Table 8
Method: as §1, §2, §4

[2] = Pharmacokinetic profile summary; assay type: in vivo, mice or rats; conditions: plasma
Method: Blood was collected from mice (n=3, or 5) to contribute to the total of 10 time points (pre-dose, 5 min, 15 min, 30 min, 1 hour, 2 hours, 4 hours, 8 hours, 12 hours and 24 hours). At the designated time points, animals were anaesthetized under isoflurane, and approximately 110 μL of blood per time point was collected via retro-orbital puncture into pre-cooled K2EDTA tubes. Blood samples were put on wet ice and centrifuged (2000 g, 5 min at 4° C.) to obtain plasma within 30 minutes of sample collection. All samples were stored frozen at approximately −80° C. until analysis. Prior to analysis, samples were mixed with internal standard in acetonitrile, vortexed, centrifuged, and supernatant was injected for analysis. Concentration of compounds in plasma was determined using LC-MS-MS instrumentation (API 4000, Triple Quadrupole LC/MS/MS Mass Spectrometer). AUC values were calculated using Phoenix Win Nonlin 6.3 software package, PO-Noncompartmental model 200 (extravascular input).
Following collection, brain tissue was rinsed with cold saline, dried on filter paper, weighed and snap-frozen by placing on dry ice. All samples were stored frozen at approximately −80° C. until analysis. At the time of analysis, brain tissue was homogenized (homogenizing solution PBS, pH 7.4), mixed with internal standard in acetonitrile, vortexed, centrifuged, and supernatant was injected for analysis. Concentration of compounds in plasma was determined using LC-MS-MS instrumentation (API 4000, Triple Quadrupole LC/MS/MS Mass Spectrometer). Plasma samples were treated with the identical method (except homogenization step) and the concentration of compound in each matrix was calculated based on generated standard curves.
The pharmacokinetic profile of test compounds in mice or rats was determined from several test compounds was determined using the methods described in Example 22.

U87MG = test: CellTiter-Glo cell proliferation assay, U87MG; assay type: cell-based, human; conditions: Homo sapiens, U-87 MG, read-out: U87MG IC50
Method: as §1, §2, §3

A-172 = test: CellTiter-Glo cell viability assay, A-172; assay type: cell-based; conditions: Homo sapiens, Table 6
Method: as §1, §2
The inhibition activity of test compounds was determined in A-172, U87MG and 3T3-L1 cell lines.
A CellTiter-Glo® luminescent cell viability assay was performed s described in Example 1.

LN-229 = test: CellTiter-Glo cell proliferation assay, LN-229; assay type: cell-based; conditions: Homo sapiens, LN-229; Table 11; read-out: Absolute IC50 (μM) LN-229
Method: as §1, §2, §3

U87MG cells = test: Capase-Glo 317 apoptosis assay; assay type: cell-based; conditions: Homo sapiens, U-87 MG, 72 hours
Method: A Capase-Glo® 317 assay was used to determine the apoptosis activity of test compounds in U87MG cells.
Compounds were dissolved in 25 mM DMSO stock solution and serially diluted. DMSO was used as the vehicle control (high control, HC) and culture medium was used as the background (low control LC). The test compounds were applied to plates and spun at 25° C. at 1,000 RPM for 1 min and shaken on a plate shaker for 2 min. Samples (80 nL) of the compounds from the plates were transferred to 384-well cell culture plates using a liquid handler.
Cells were harvested and the cell numbers counted. 40 μL of the cell suspension with the adjusted density was added to 384-well cell culture pates. The final cell density is 1,000 cells/well. Cell culture medium only was used in the low control (LC) samples. The plates were covered with a lid and placed in a 5% CO2 incur at 37° C. for 72 hours.
After incubating for 72 hours, the plates were removed from the incubator and equilibrated at 25° C. for 15 minutes. CellTiter Glo® regen was incubated at 37° C. before the experiments. 40 μL of Capase-Glo® 317 was added into each well to be detected at a 1:1 ratio to culture medium. The plates were then placed at 25° C. for 30 min and read using an EnSpire® Plate Reader.
The % activity remaining was determined using the following formula: % Remaining Activity=[…]×(Lumsample−LumLC)/(LumHC−LUM LC), where HC is obtained from cells treated with 0.1% DMSO only, LC is obtained from culture medium only.

HCN2 = test: CellTiter-Glo cell proliferation assay, HCN2 (normal brain); assay type: cell-based; conditions: for IC50: read-out: HCN2 IC50
Method: as §1, §2, §3

O=C(/C=C\n1cnc(-c2cc(C(F)(F)F)cc(C(F)(F)F)c2)n1)NNc1cnccn1 [KPT-330, (Z)-3-(3-(3,5-bis(trifluoromethyl)phenyl)-1H-1,2,4-triazol-1-yl)-N′-(pyrazin-2-yl)acrylohydrazide, reference compound]
survival in MTD study [1]: all mice were dead, or anaesthetized for the weight lost up to 20% | IC50 (T98G): 0.8 µM | IC50 (3T3-L1): > 50000 nM | IC50 (3T3): > 50000 nM | IC50 (HCT116; Homo sapiens, HCT-116): 2130 nM | HCT116 Max % inh (HCT116): 98% | expression of Ki67 in tumors (IHC) (Ki67): significantly decreased | expression of CRM1 in tumors (IHC) (CRM1): significantly decreased | MTD (in vivo): 15 mg/kg | IC50 (U251): 1 µM | IC50 (C8-B4; C8-B4): 1270 nM | C8-B4 Max % inh (C8-B4): 100% | AUC ([2]; po, 10 mg/kg, 10 mpk): 8420 ng·h/mL | half-life ([2]; mice or rats): 1.7 h | Cmax ([2]; po, 10 mg/kg, 10 mpk, read-out: Cmax (ng/ml) plasma/10 mpk): 2520 ng/mL | IC50 (U87MG; Table 6): 129 nM | IC50 (U87MG; Table 9, first value column): 520 nM | IC50 (U87MG; Table 9, second value column): 710 nM | IC50 (A-172): 224 nM | IC50 (LN-229): 0.3 µM | EC50 (U87MG cells): 12600 nM | Emax (U87MG cells; U87MG): 398% | HCN2 Max % inh (HCN2; Table 8): 99% | IC50 (HCN2; Table 8): 30700 nM | IC50 (HCN2; Table 9): 34200 nM
